Measurements from patent US6706664B1, “Benzoxazole compounds, process for the preparation thereof and herbicides” (UBE Industries, Ltd., priority 1999, dated 2004).

What was measured:
Parameters in all cases: key: 0: normal development; 1: Less damaged; 2: Slightly damaged; 3: Moderately damaged; 4: Severely damaged; 5: All killed
green foxtail [1] = experiment: Soil treatment test for upland field; format: in vivo, Setaria viridis; settings: 500 g/ha, glass house 25° C., 3 weeks
In short: (§1)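 Pre-emergence: seeds sown in Ube alluvial soil in pots, then soil surface sprayed with wettable-powder formulation diluted in water with 0.05% surfactant at 500 g/ha. Plants kept in glasshouse at average 25° C for 3 weeks; injury scored 0 (normal) to 5 (all killed).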

annual bluegrass [2] = experiment: Soil treatment test for upland field; format: in vivo, Poa annua; settings: 500 g/ha, glass house 25° C., 3 weeks
In short: as §1

common lambsquartes [3] = experiment: Foliar spread test for upland field; format: in vivo, Chenopodium album; settings: foliar spray 500 ppm, 3 weeks, rank vs non-treated
In short: (§2)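 Seeds are planted in pots of volcanic ash soil and grown roughly 2 weeks under glass. Foliage then receives a uniform spray of compound at 500 ppm in water with 0.5% surfactant. Herbicidal damage is rated 0–5 after 3 weeks at an average 25° C.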

sugar beat [4] = experiment: Foliar spread test for upland field; format: in vivo; settings: foliar spray 500 ppm, 3 weeks, rank vs non-treated
In short: as §2

cotton [5] = experiment: Foliar spread test for upland field; format: in vivo; settings: foliar spray 500 ppm, 3 weeks, rank vs non-treated
In short: as §2

solgum [6] = experiment: Foliar spread test for upland field; format: in vivo; settings: foliar spray 500 ppm, 3 weeks, rank vs non-treated
In short: as §2

wheat [7] = experiment: Foliar spread test for upland field; format: in vivo; settings: foliar spray 500 ppm, 3 weeks, rank vs non-treated
In short: as §2

soybean [8] = experiment: Foliar spread test for upland field; format: in vivo; settings: foliar spray 500 ppm, 3 weeks, rank vs non-treated
In short: as §2

corn [9] = experiment: Foliar spread test for upland field; format: in vivo; settings: foliar spray 500 ppm, 3 weeks, rank vs non-treated
In short: as §2

velvetleaf [10] = experiment: Foliar spread test for upland field; format: in vivo, Abutilon theophrasti; settings: foliar spray 500 ppm, 3 weeks, rank vs non-treated
In short: as §2

livid amaranth [11] = experiment: Foliar spread test for upland field; format: in vivo, Amaranthus lividus; settings: foliar spray 500 ppm, 3 weeks, rank vs non-treated
In short: as §2

sugar beat [12] = experiment: Soil treatment test for upland field; format: in vivo; settings: 500 g/ha, glass house 25° C., 3 weeks
In short: as §1

solgum [13] = experiment: Soil treatment test for upland field; format: in vivo; settings: 500 g/ha, glass house 25° C., 3 weeks
In short: as §1

wheat [14] = experiment: Soil treatment test for upland field; format: in vivo; settings: 500 g/ha, glass house 25° C., 3 weeks
In short: as §1

soybean [15] = experiment: Soil treatment test for upland field; format: in vivo; settings: 500 g/ha, glass house 25° C., 3 weeks
In short: as §1

corn [16] = experiment: Soil treatment test for upland field; format: in vivo; settings: 500 g/ha, glass house 25° C., 3 weeks
In short: as §1

green foxtail [17] = experiment: Foliar spread test for upland field; format: in vivo, Setaria viridis; settings: foliar spray 500 ppm, 3 weeks, rank vs non-treated
Description: (§3) (0: normal development, 1: Less damaged, 2: Slightly damaged, 3: Moderately damaged, 4: Severely damaged, 5: All killed).
(§4) Wagner pots, each having an area of 1/5000 are, were packed with volcanic ash soil and then each seed of corn, soybean, cotton, wheat, solgum, sugar beat, Large crabgrass, barnyardgrass, green foxtail, blackgrass, annual bluegrass, common lambsquartes, livid amaranth, velvetleaf and morning glory was planted, covered with soil and grown in a glass house at an average temperature of […] for about 2 weeks.
(§5) Each wettable powder of the desired compounds (I) shown in Table 1 prepared in accordance with Example 2 was diluted to 500 ppm with water containing a surfactant (0.5%) and then uniformly sprayed on the above respective plants.
(§6) After these plants were controlled in a glass house at an average temperature of 25° C. for 3 weeks, the herbicidal effects thereof were investigated.
(§7) The herbicidal effects were evaluated according to the evaluation method described in the above (1).

morning glory = experiment: Foliar spread test for upland field; format: in vivo, Ipomoea spps.; settings: foliar spray 500 ppm, 3 weeks, rank vs non-treated
Description: as §3, §4, §5, §6, §7

blackgrass [18] = experiment: Foliar spread test for upland field; format: in vivo, Alopecurus aegualis; settings: foliar spray 500 ppm, 3 weeks, rank vs non-treated
Description: as §3, §4, §5, §6, §7

Large crabgrass [19] = experiment: Foliar spread test for upland field; format: in vivo, Digitaria adscendens; settings: foliar spray 500 ppm, 3 weeks, rank vs non-treated
Description: as §3, §4, §5, §6, §7

Large crabgrass [20] = experiment: Soil treatment test for upland field; format: in vivo, Digitaria adscendens; settings: 500 g/ha, glass house 25° C., 3 weeks
In short: as §1

livid amaranth [21] = experiment: Soil treatment test for upland field; format: in vivo, Amaranthus lividus; settings: 500 g/ha, glass house 25° C., 3 weeks
In short: as §1

annual bluegrass [22] = experiment: Foliar spread test for upland field; format: in vivo, Poa annua; settings: foliar spray 500 ppm, 3 weeks, rank vs non-treated
Description: as §3, §4, §5, §6, §7

common lambsquartes [23] = experiment: Soil treatment test for upland field; format: in vivo, Chenopodium album; settings: 500 g/ha, glass house 25° C., 3 weeks
In short: as §1

barnyardgrass [24] = experiment: Soil treatment test for upland field; format: in vivo, Echinochloa crusgalli; settings: 500 g/ha, glass house 25° C., 3 weeks
In short: as §1

velvetleaf [25] = experiment: Soil treatment test for upland field; format: in vivo, Abutilon theophrasti; settings: 500 g/ha, glass house 25° C., 3 weeks
In short: as §1

blackgrass [26] = experiment: Soil treatment test for upland field; format: in vivo, Alopecurus aegualis; settings: 500 g/ha, glass house 25° C., 3 weeks
In short: as §1

cotton [27] = experiment: Soil treatment test for upland field; format: in vivo; settings: 500 g/ha, glass house 25° C., 3 weeks
In short: as §1

barnyardgrass [28] = experiment: Foliar spread test for upland field; format: in vivo, Echinochloa crusgalli; settings: foliar spray 500 ppm, 3 weeks, rank vs non-treated
Description: as §3, §4, §5, §6, §7

Row | Compound | Effects Green foxtail (green foxtail [1]) | Effects Annual bluegrass (annual bluegrass [2]) | Effects Common lambsquarters (common lambsquartes [3]) | Effects Sugar beat (sugar beat [4]) | Effects Cotton (cotton [5]) | Effects Solgum (solgum [6]) | Effects Wheat (wheat [7]) | Effects Soybean (soybean [8]) | Effects Corn (corn [9]) | Effects Velvetleaf (velvetleaf [10]) | Effects Livid amaranth (livid amaranth [11]) | Effects Sugar beat (sugar beat [12]) | Effects Solgum (solgum [13]) | Effects Wheat (wheat [14]) | Effects Soybean (soybean [15]) | Effects Green foxtail (green foxtail [17]) | Effects Morning glory (morning glory) | Effects Blackgrass (blackgrass [18]) | Effects Large crabgrass (Large crabgrass [19]) | Effects Annual bluegrass (annual bluegrass [22]) | also measured
1 | CC(Oc1cccc(C(F)(F)F)c1)c1nc2ccc(C(F)(F)F)cc2o1 (stereo not drawn) [Compound 86] | 4 | 1 | 2 | 2 | 1 | 0 | 1 | 2 | 1 | 1 | 3 | 2 | 0 | 0 | 0 | 2 | 3 | 1 | 2 | 1 | Effects Corn (corn [16]): 0; Effects Large crabgrass (Large crabgrass [20]): 5; Effects Livid amaranth (livid amaranth [21]): 5; Effects Common lambsquarters (common lambsquartes [23]): 1; Effects Barnyardgrass (barnyardgrass [24]): 3
2 | CCC(Oc1cccc(C(F)(F)F)c1)c1nc2cc([N+](=O)[O-])ccc2o1 (stereo not drawn) [Compound 178] | 5 | 5 | 4 | 3 | 3 | 2 | 2 | 3 | 2 | 3 | 4 | 1 | 0 | 0 | 0 | 2 |  | 2 | 3 | 3 | Effects Velvetleaf (velvetleaf [25]): 1; Effects Blackgrass (blackgrass [26]): 3; Effects Cotton (cotton [27]): 0; Effects Corn (corn [16]): 0; Effects Large crabgrass (Large crabgrass [20]): 5; Effects Livid amaranth (livid amaranth [21]): 5; Effects Barnyardgrass (barnyardgrass [28]): 2; Effects Common lambsquarters (common lambsquartes [23]): 4; Effects Barnyardgrass (barnyardgrass [24]): 4
3 | CCC(Oc1ccc(Cl)c(C(F)(F)F)c1)c1nc2cc(Cl)ccc2o1 (stereo not drawn) [Compound 438] |  |  | 3 | 5 | 3 | 2 | 2 | 4 | 2 | 3 | 5 |  |  |  |  | 3 | 4 | 2 | 3 | 3 | Effects Barnyardgrass (barnyardgrass [28]): 1
4 | CCC(Oc1cccc(S(C)(=O)=O)c1)c1nc2cc(S(C)(=O)=O)ccc2o1 (stereo not drawn) [Compound 513] | 5 | 5 | 5 | 5 |  | 3 |  |  |  | 5 | 5 | 5 | 2 | 2 | 2 | 5 | 3 | 5 | 5 | 5 | Effects Velvetleaf (velvetleaf [25]): 5; Effects Blackgrass (blackgrass [26]): 3; Effects Cotton (cotton [27]): 2; Effects Large crabgrass (Large crabgrass [20]): 5; Effects Livid amaranth (livid amaranth [21]): 5; Effects Barnyardgrass (barnyardgrass [28]): 3; Effects Common lambsquarters (common lambsquartes [23]): 5; Effects Barnyardgrass (barnyardgrass [24]): 4
5 | CCC(Oc1ccc(F)c(C(F)(F)F)c1)c1nc2cc(NC(=O)C(F)(F)F)ccc2o1 (stereo not drawn) [Compound 518] |  |  | 2 | 5 | 0 | 0 | 0 | 0 | 0 | 3 | 2 |  |  |  |  | 5 |  | 2 | 2 |  | 
6 | CCC(Oc1ccc(Cl)c(C(F)(F)F)c1)c1nc2cc(C#N)c(Cl)cc2o1 (stereo not drawn) [Compound 534] | 5 | 5 | 4 | 5 |  | 2 | 2 |  | 2 | 5 | 5 | 5 | 1 | 1 | 2 |  | 5 | 3 | 2 | 4 | Effects Velvetleaf (velvetleaf [25]): 5; Effects Blackgrass (blackgrass [26]): 4; Effects Corn (corn [16]): 2; Effects Large crabgrass (Large crabgrass [20]): 5; Effects Livid amaranth (livid amaranth [21]): 5; Effects Barnyardgrass (barnyardgrass [28]): 2; Effects Common lambsquarters (common lambsquartes [23]): 5; Effects Barnyardgrass (barnyardgrass [24]): 4
